Results published in patent US20250353891A1 (MEDIMMUNE LIMITED, priority 2022, published 2025).
pEC50: −log10 of the molar value. Starred links: 1 amine or outer side, 2 acyl side, 3 side chain; linkers in the order of their positions; H or OH if unused. Non-standard residues stand in square brackets, D forms with d. Residues, ends and D or L forms follow the SMILES beside them. Groups on a side chain read outwards from the residue. *: point of attachment. C20 diacid = O=C(O)CCCCCCCCCCCCCCCCCCC(=O)*; C18 diacid = O=C(O)CCCCCCCCCCCCCCCCC(=O)*; γGlu = O=C(O)[C@H](CCC(=O)[*:2])N[*:1]; X3 = O=C(CN(Cc1c[nH]cn1)[*:1])[*:2]; αMeF = C[C@](N)(Cc1ccccc1)C(=O)O; AEEA = NCCOCCOCC(=O)O; Aib = CC(C)(N)C(=O)O

How the values were obtained:
[1] = target: human glucagon receptor (hGCGR) (Homo sapiens, UniProt P47871); experiment: cAMP production (HTRF) in CHO cells expressing hGCGR; format: cell-based; design: expressed in transfected cells; settings: Table 7, peptides modified at position 20; cAMP in CHO hGCGR cells; geometric mean; read-out: hGluc-R EC50
Sequence of human glucagon receptor (hGCGR) (P47871 26-477): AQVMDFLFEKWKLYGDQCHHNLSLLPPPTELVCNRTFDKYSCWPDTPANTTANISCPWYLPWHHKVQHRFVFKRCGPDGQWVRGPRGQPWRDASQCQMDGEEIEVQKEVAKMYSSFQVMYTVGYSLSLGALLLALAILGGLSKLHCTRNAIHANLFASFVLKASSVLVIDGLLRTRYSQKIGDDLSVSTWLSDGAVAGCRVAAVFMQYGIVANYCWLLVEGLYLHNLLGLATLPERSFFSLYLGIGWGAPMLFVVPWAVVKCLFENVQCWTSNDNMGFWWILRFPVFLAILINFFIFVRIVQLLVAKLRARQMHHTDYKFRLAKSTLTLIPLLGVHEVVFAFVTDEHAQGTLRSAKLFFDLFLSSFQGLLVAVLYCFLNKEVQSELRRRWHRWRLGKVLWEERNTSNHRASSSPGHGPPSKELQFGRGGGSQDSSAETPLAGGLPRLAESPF
In short: (§1)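 Read-out: HTRF cAMP (anti-cAMP cryptate donor, cAMP-d2 acceptor in conjugate/lysis buffer), converted to % Delta F and fitted by 4-parameter logistic for EC50. Cell densities were 1×10^5 cells/mL (hGLP-1R) or 2×10^5 cells/mL (hGCGR). Stimulation lasted 30 min at room temperature.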

[2] = target: human GLP-1 receptor (hGLP-1R) (Homo sapiens, UniProt P43220); experiment: cAMP production (HTRF) in CHO cells expressing hGLP-1R; format: cell-based; design: expressed in transfected cells; settings: for pEC50: Table 7, peptides modified at position 20, cAMP in CHO hGLP-1R cells, geometric mean, read-out: hGLP-1R EC50; for % Relative Potency Ratio: Table 7, % GLP-1R activity relative to GLP-1 / % GlucR activity relative to glucagon
Sequence of human GLP-1 receptor (hGLP-1R) (P43220 24-463): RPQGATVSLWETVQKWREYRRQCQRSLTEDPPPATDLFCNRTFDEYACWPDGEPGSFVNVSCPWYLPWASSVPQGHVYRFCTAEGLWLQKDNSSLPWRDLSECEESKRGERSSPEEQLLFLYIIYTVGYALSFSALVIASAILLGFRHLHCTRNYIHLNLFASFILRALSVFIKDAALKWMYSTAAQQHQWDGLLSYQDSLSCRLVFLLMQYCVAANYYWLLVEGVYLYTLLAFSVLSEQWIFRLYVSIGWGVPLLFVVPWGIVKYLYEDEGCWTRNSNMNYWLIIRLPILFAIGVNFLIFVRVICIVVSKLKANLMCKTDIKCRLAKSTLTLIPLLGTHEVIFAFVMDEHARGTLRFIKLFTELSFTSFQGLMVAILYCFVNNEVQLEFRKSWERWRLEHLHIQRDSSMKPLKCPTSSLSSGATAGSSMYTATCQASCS
In short: as §1

Row | pEC50 [1] | pEC50 [2] | % Relative Potency Ratio [2] | SMILES
1 | 10.30 | 10.23 | 1.7 | CC[C@H](C)[C@H](NC(=O)[C@H](CO)NC(=O)[C@H](CCC(N)=O)NC(=O)[C@@H](NC(=O)[C@](C)(Cc1ccccc1)NC(=O)[C@H](CC(=O)O)NC(=O)[C@H](CCCCNC(=O)COCCOCCNC(=O)COCCOCCNC(=O)CC[C@H](NC(=O)CCCCCCCCCCCCCCCCC(=O)O)C(=O)O)NC(=O)[C@H](C)NC(=O)[C@H](C)NC(=O)[C@H](CCCNC(=N)N)NC(=O)[C@H](CO)NC(=O)[C@H](CC(=O)O)NC(=O)[C@H](CC(C)C)NC(=O)[C@](C)(Cc1ccccc1)NC(=O)[C@H](CCCCN)NC(=O)[C@H](CO)NC(=O)[C@@H](NC(=O)[C@H](CC(=O)O)NC(=O)[C@H](CO)NC(=O)[C@@H](NC(=O)[C@](C)(Cc1ccccc1)NC(=O)[C@H](CO)NC(=O)CNC(=O)[C@H](Cc1c[nH]cn1)NC(=O)C(C)(C)NC(=O)[C@@H](N)Cc1c[nH]cn1)[C@@H](C)O)C(C)C)C(C)C)C(=O)N[C@@H](C)C(=O)N[C@@H](CC(N)=O)C(=O)N[C@H](C(N)=O)[C@@H](C)O [Peptide 243] (H-H[Aib]HGS[αMeF]TSDVSK[αMeF]LDSRAAK([AEEA-AEEA-γGlu-C18 diacid])D[αMeF]VQSIANT-NH2)
2 | 9.38 | 9.84 | 5.8 | CC[C@H](C)[C@H](NC(=O)[C@H](CO)NC(=O)[C@H](CCC(N)=O)NC(=O)[C@@H](NC(=O)[C@](C)(Cc1ccccc1)NC(=O)[C@H](CC(=O)O)NC(=O)[C@H](CCCCNC(=O)COCCOCCNC(=O)COCCOCCNC(=O)CC[C@H](NC(=O)CC[C@H](NC(=O)CCCCCCCCCCCCCCCCCCC(=O)O)C(=O)O)C(=O)O)NC(=O)[C@H](C)NC(=O)[C@H](C)NC(=O)[C@H](CCCNC(=N)N)NC(=O)[C@H](CO)NC(=O)[C@H](CC(=O)O)NC(=O)[C@H](CC(C)C)NC(=O)[C@](C)(Cc1ccccc1)NC(=O)[C@H](CCCCN)NC(=O)[C@H](CO)NC(=O)[C@@H](NC(=O)[C@H](CC(=O)O)NC(=O)[C@H](CO)NC(=O)[C@@H](NC(=O)[C@](C)(Cc1ccccc1)NC(=O)[C@H](CO)NC(=O)CNC(=O)[C@H](Cc1c[nH]cn1)NC(=O)C(C)(C)NC(=O)[C@@H](N)Cc1c[nH]cn1)[C@@H](C)O)C(C)C)C(C)C)C(=O)N[C@@H](C)C(=O)N[C@@H](CC(N)=O)C(=O)N[C@H](C(N)=O)[C@@H](C)O [Peptide 244] (H-H[Aib]HGS[αMeF]TSDVSK[αMeF]LDSRAAK([AEEA-AEEA-γGlu-γGlu-C20 diacid])D[αMeF]VQSIANT-NH2)
3 | 10.20 | 9.96 | 1.1 | CC[C@H](C)[C@H](NC(=O)[C@H](CO)NC(=O)[C@H](CCC(=O)O)NC(=O)[C@@H](NC(=O)[C@](C)(Cc1ccccc1)NC(=O)[C@H](CC(=O)O)NC(=O)[C@H](CCCCNC(=O)COCCOCCNC(=O)COCCOCCNC(=O)CC[C@H](NC(=O)CCCCCCCCCCCCCCCCC(=O)O)C(=O)O)NC(=O)[C@H](C)NC(=O)[C@H](C)NC(=O)[C@H](CCCNC(=N)N)NC(=O)[C@H](CO)NC(=O)[C@H](CC(=O)O)NC(=O)[C@H](CC(C)C)NC(=O)[C@](C)(Cc1ccccc1)NC(=O)[C@H](CCCCN)NC(=O)[C@H](CO)NC(=O)[C@@H](NC(=O)[C@H](CC(=O)O)NC(=O)[C@H](CO)NC(=O)[C@@H](NC(=O)[C@](C)(Cc1ccccc1)NC(=O)[C@H](CO)NC(=O)CNC(=O)[C@H](Cc1c[nH]cn1)NC(=O)C(C)(C)NC(=O)[C@@H](N)Cc1c[nH]cn1)[C@@H](C)O)C(C)C)C(C)C)C(=O)N[C@@H](C)C(=O)N[C@@H](CC(N)=O)C(=O)N[C@H](C(N)=O)[C@@H](C)O [Peptide 245] (H-H[Aib]HGS[αMeF]TSDVSK[αMeF]LDSRAAK([AEEA-AEEA-γGlu-C18 diacid])D[αMeF]VESIANT-NH2)
4 | 9.25 | 9.49 | 3.4 | CC[C@H](C)[C@H](NC(=O)[C@H](CO)NC(=O)[C@H](CCC(=O)O)NC(=O)[C@@H](NC(=O)[C@](C)(Cc1ccccc1)NC(=O)[C@H](CC(=O)O)NC(=O)[C@H](CCCCNC(=O)COCCOCCNC(=O)COCCOCCNC(=O)CC[C@H](NC(=O)CC[C@H](NC(=O)CCCCCCCCCCCCCCCCCCC(=O)O)C(=O)O)C(=O)O)NC(=O)[C@H](C)NC(=O)[C@H](C)NC(=O)[C@H](CCCNC(=N)N)NC(=O)[C@H](CO)NC(=O)[C@H](CC(=O)O)NC(=O)[C@H](CC(C)C)NC(=O)[C@](C)(Cc1ccccc1)NC(=O)[C@H](CCCCN)NC(=O)[C@H](CO)NC(=O)[C@@H](NC(=O)[C@H](CC(=O)O)NC(=O)[C@H](CO)NC(=O)[C@@H](NC(=O)[C@](C)(Cc1ccccc1)NC(=O)[C@H](CO)NC(=O)CNC(=O)[C@H](Cc1c[nH]cn1)NC(=O)C(C)(C)NC(=O)[C@@H](N)Cc1c[nH]cn1)[C@@H](C)O)C(C)C)C(C)C)C(=O)N[C@@H](C)C(=O)N[C@@H](CC(N)=O)C(=O)N[C@H](C(N)=O)[C@@H](C)O [Peptide 246] (H-H[Aib]HGS[αMeF]TSDVSK[αMeF]LDSRAAK([AEEA-AEEA-γGlu-γGlu-C20 diacid])D[αMeF]VESIANT-NH2)
5 | 7.87 | 8.96 | 24.6 | CC[C@H](C)[C@H](NC(=O)[C@H](Cc1c[nH]c2ccccc12)NC(=O)[C@H](CCC(N)=O)NC(=O)[C@@H](NC(=O)[C@](C)(Cc1ccccc1)NC(=O)[C@H](CC(=O)O)NC(=O)[C@H](CCCCNC(=O)COCCOCCNC(=O)COCCOCCNC(=O)CC[C@H](NC(=O)CC[C@H](NC(=O)CCCCCCCCCCCCCCCCCCC(=O)O)C(=O)O)C(=O)O)NC(=O)[C@H](C)NC(=O)[C@H](C)NC(=O)[C@H](CCCNC(=N)N)NC(=O)[C@H](CO)NC(=O)[C@H](CC(=O)O)NC(=O)[C@H](CC(C)C)NC(=O)[C@](C)(Cc1ccccc1)NC(=O)[C@H](CCCCN)NC(=O)[C@H](CO)NC(=O)[C@@H](NC(=O)[C@H](CC(=O)O)NC(=O)[C@H](CO)NC(=O)[C@@H](NC(=O)[C@](C)(Cc1ccccc1)NC(=O)[C@H](CO)NC(=O)CNC(=O)[C@H](Cc1c[nH]cn1)NC(=O)[C@H](CO)NC(=O)CNCc1c[nH]cn1)[C@@H](C)O)C(C)C)C(C)C)C(=O)N[C@@H](C)C(=O)N[C@@H](CC(N)=O)C(=O)N[C@H](C(N)=O)[C@@H](C)O [Peptide 248] (H-[X3]SHGS[αMeF]TSDVSK[αMeF]LDSRAAK([AEEA-AEEA-γGlu-γGlu-C20 diacid])D[αMeF]VQWIANT-NH2; N-terminus assumed)
6 | 9.26 | 9.25 | 1.9 | CC[C@H](C)[C@H](NC(=O)[C@H](CO)NC(=O)[C@H](CCC(=O)O)NC(=O)[C@@H](NC(=O)[C@](C)(Cc1ccccc1)NC(=O)[C@H](CC(=O)O)NC(=O)[C@H](CCCCNC(=O)COCCOCCNC(=O)COCCOCCNC(=O)CC[C@H](NC(=O)CC[C@H](NC(=O)CCCCCCCCCCCCCCCCCCC(=O)O)C(=O)O)C(=O)O)NC(=O)[C@H](C)NC(=O)C(C)(C)NC(=O)[C@H](CCCNC(=N)N)NC(=O)[C@H](CO)NC(=O)[C@H](CC(=O)O)NC(=O)[C@H](CC(C)C)NC(=O)[C@](C)(Cc1ccccc1)NC(=O)[C@H](CCCCN)NC(=O)[C@H](CO)NC(=O)[C@@H](NC(=O)[C@H](CC(=O)O)NC(=O)[C@H](CO)NC(=O)[C@@H](NC(=O)[C@](C)(Cc1ccccc1)NC(=O)[C@H](CO)NC(=O)CNC(=O)[C@H](Cc1c[nH]cn1)NC(=O)C(C)(C)NC(=O)[C@@H](N)Cc1c[nH]cn1)[C@@H](C)O)C(C)C)C(C)C)C(=O)N[C@@H](C)C(=O)N[C@@H](CC(N)=O)C(=O)N[C@H](C(N)=O)[C@@H](C)O [Peptide 249] (H-H[Aib]HGS[αMeF]TSDVSK[αMeF]LDSR[Aib]AK([AEEA-AEEA-γGlu-γGlu-C20 diacid])D[αMeF]VESIANT-NH2)
7 | 8.81 | 9.22 | 5.2 | CC[C@H](C)[C@H](NC(=O)[C@H](CO)NC(=O)[C@H](CCC(=O)O)NC(=O)[C@@H](NC(=O)[C@](C)(Cc1ccccc1)NC(=O)[C@H](CC(=O)O)NC(=O)[C@H](CCCCNC(=O)COCCOCCNC(=O)COCCOCCNC(=O)CC[C@H](NC(=O)CC[C@H](NC(=O)CCCCCCCCCCCCCCCCC(=O)O)C(=O)O)C(=O)O)NC(=O)[C@H](C)NC(=O)C(C)(C)NC(=O)[C@H](CCCNC(=N)N)NC(=O)[C@H](CO)NC(=O)[C@H](CC(=O)O)NC(=O)[C@H](CC(C)C)NC(=O)[C@](C)(Cc1ccccc1)NC(=O)[C@H](CCCCN)NC(=O)[C@H](CO)NC(=O)[C@@H](NC(=O)[C@H](CC(=O)O)NC(=O)[C@H](CO)NC(=O)[C@@H](NC(=O)[C@](C)(Cc1ccccc1)NC(=O)[C@H](CO)NC(=O)CNC(=O)[C@H](Cc1c[nH]cn1)NC(=O)C(C)(C)NC(=O)[C@@H](N)Cc1c[nH]cn1)[C@@H](C)O)C(C)C)C(C)C)C(=O)N[C@@H](C)C(=O)N[C@@H](CC(N)=O)C(=O)N[C@H](C(N)=O)[C@@H](C)O [Peptide 250] (H-H[Aib]HGS[αMeF]TSDVSK[αMeF]LDSR[Aib]AK([AEEA-AEEA-γGlu-γGlu-C18 diacid])D[αMeF]VESIANT-NH2)
8 | 9.61 | 10.10 | 6.2 | CC[C@H](C)[C@H](NC(=O)[C@H](CO)NC(=O)[C@H](CCC(=O)O)NC(=O)[C@@H](NC(=O)[C@H](Cc1ccccc1)NC(=O)[C@H](CC(=O)O)NC(=O)[C@H](CCCCNC(=O)COCCOCCNC(=O)COCCOCCNC(=O)CC[C@H](NC(=O)CCCCCCCCCCCCCCCCC(=O)O)C(=O)O)NC(=O)[C@H](C)NC(=O)C(C)(C)NC(=O)[C@H](CCCNC(=N)N)NC(=O)[C@H](CO)NC(=O)[C@H](CC(=O)O)NC(=O)[C@H](CC(C)C)NC(=O)[C@](C)(Cc1ccccc1)NC(=O)[C@H](CCCCN)NC(=O)[C@H](CO)NC(=O)[C@@H](NC(=O)[C@H](CC(=O)O)NC(=O)[C@H](CO)NC(=O)[C@@H](NC(=O)[C@](C)(Cc1ccccc1)NC(=O)[C@H](CO)NC(=O)CNC(=O)[C@H](Cc1c[nH]cn1)NC(=O)C(C)(C)NC(=O)[C@@H](N)Cc1c[nH]cn1)[C@@H](C)O)C(C)C)C(C)C)C(=O)N[C@@H](C)C(=O)N[C@@H](CC(N)=O)C(=O)N[C@H](C(N)=O)[C@@H](C)O [Peptide 251] (H-H[Aib]HGS[αMeF]TSDVSK[αMeF]LDSR[Aib]AK([AEEA-AEEA-γGlu-C18 diacid])DFVESIANT-NH2; N-terminus assumed)
